According to patent US20140064053A1, “NON-RESONANT TWO-PHOTON ABSORPTION MATERIAL, NON-RESONANT TWO-PHOTON ABSORPTION RECORDING MATERIAL, RECORDING MEDIUM, RECORDING/REPRODUCING METHOD AND NON-RESONANT TWO-PHOTON ABSORPTION COMPOUND” (FUJIFILM Corporation, priority 2011, published 2014):

Legend:
[1] = Evaluation of solubility of two-photon absorption compound in dichloromethane; format: physicochemical; conditions: invention compounds compared with Comparative Compound R-1
Description: Compounds D-1, D-2, D-6 and D-29 of the present invention and Comparative Compound R-1 for dichloromethane were evaluated for the solubility (room temperature).

[2] = Two-photon absorption cross-sectional area by the Z scanning method; format: physicochemical; conditions: measurement wavelength 405 nm; chloroform solution, about 1×10^−3 mol/l; 1 GM = 1 × 10^−50 cm^4 s molecule^−1 photon^−1
Description: The measurement of the two-photon absorption cross-sectional area of the synthesized compound was performed by the Z scanning method described in MANSOOR SHEIK-BAHAE et al., IEEE. Journal of Quantum Electronics, 1990, 26, 760. The Z scanning method is a method widely used as the measuring method of a non-linear optical constant, where in the vicinity of the focus of converged laser beam, a measurement sample is moved along the beam and the change in the quantity of transmitted light is recorded. Since the power density of incident light changes depending upon the position of the sample, when non-linear absorption is present, the quantity of transmitted light attenuates in the vicinity of the focus. The two-photon absorption cross-sectional area was computed by fitting the change in the quantity of transmitted light to a theoretical curve predicted from the incident light intensity, the light converging spot size, the sample thickness and the sample concentration. As the light source for the measurement of two-photon absorption cross-sectional area, a Ti:sapphire pulsed laser (pulse width: 100 fs, repetition: 80 MHz, average output: 1 W, peak power: 100 kW) obtained by combining a […] and a light parametric amplifier was used. As the sample for the measurement of two-photon absorption cross-sectional area, a solution obtained by dissolving the compound in chloroform in a concentration of about 1×10^−3 mol/l was used.
The two-photon absorption cross-sectional areas of Compounds D-1, D-2, D-6 and D-29 of the present invention and Comparative Compound R-1 [recited as Compound D-1 in Patent Document 5 (JP-A-2010-108588)] are shown in Table 1 below.

| SMILES | Solubility (in words) [1] | Two-Photon Absorption Cross-Sectional Area [2] [GM] |
| --- | --- | --- |
| COCCOCCOCCOCCOCCOc1ccc(C(=O)c2ccc(-c3ccc(-c4ccc(-c5ccc(C#N)cc5)cc4)cc3)cc2)cc1 [Compound D-2] | high solubility | 860 |
| CCCCC(CC)COc1ccc(C(=O)c2ccc(-c3ccc(-c4ccc(-c5ccc(C#N)cc5)cc4)cc3)cc2)cc1 [Compound D-1] | high solubility | 900 |
| COc1cc(-c2ccc(-c3ccc(C(=O)c4ccc(OCCOCCOC(C)=O)c(OCCOCCOC(C)=O)c4)cc3)c(OC)c2)ccc1-c1ccc(C(=O)c2ccc(OCCOCCOC(C)=O)c(OCCOCCOC(C)=O)c2)cc1 [Compound D-29] | high solubility | 2000 |
| N#Cc1ccc(-c2ccc(-c3ccc(-c4ccc(C(=O)c5ccccc5)cc4)cc3)cc2)cc1 [Compound R-1, reference compound] | low | 1700 |
| CCCCC(CC)COc1ccc(C(=O)c2ccc(-c3ccc(-c4ccc(-c5ccc(C#N)cc5)c(OC)c4)cc3OC)cc2)cc1 [Compound D-6] | high solubility | 1140 |
